This passage reports IC50 and STAT3 luciferase activity results from PMC5460289, “Identification of New Shikonin Derivatives as Antitumor Agents Targeting STAT3 SH2 Domain” (Scientific Reports, 2017).

Type in all cases: cell-based, human
For one assay, the system named is MDA-MB-468. Kind of assay: MTT anti-proliferation assay. Conditions: Homo sapiens, MDA-MB-468, 24 h treatment. The protocol:
(§1) Initial experiments were performed for evaluation of growth inhibition by the new compounds against six human breast cancer cell lines, including MCF-7 (ER+/PR+, HER-2-), BT474 (ER+/PR+, HER-2+), SKBR-3 (ER-/PR-/HER-2+), MDA-MB-436 (ER-/PR-/HER-2-), MDA-MB-231 (ER-/PR-/HER-2-), MDA-MB-468 (ER-/PR-/HER-2-) and non-tumorigenic MCF-10A cells. After 24 h treatment by the obtained compounds, the inhibition was assessed and the IC50 was summarized. […] Subsequently, the inhibition of STAT3 activation by PMM-172 and Stattic was evaluated using a dual-luciferase assay.
(§2) The anti-proliferative activities of the prepared compounds against MCF-7 (ER+/PR+, HER-2-), BT474 (ER+/PR+, HER-2+), SKBR-3 (ER-/PR-/HER-2+), MDA-MB-436 (ER-/PR-/HER-2-), MDA-MB-231 (ER-/PR-/HER-2-), MDA-MB-468 (ER-/PR-/HER-2-) and non-tumorigenic MCF-10A cell lines were evaluated using a standard (MTT)-based colorimetric assay with some modification. Cell lines were grown to log phase in DMEM supplemented with 10% fetal bovine serum. Cell suspensions were prepared and 100 μL/well dispensed into 96-well plates giving 10^4 cells/well. The subsequent incubation was permitted at 37 °C, 5% CO2 atmosphere for 24 h to allow the cells to reattach. Subsequently, cells were treated with the target compounds at increasing concentrations in the presence of 10% FBS for 24 h. Then, cell viability was assessed by the conventional 3-(4, 5-dimethylthiazol-2-yl)-2, 5-diphenyltetrazolium bromide (MTT) reduction assay and carried out strictly according to the manufacturer instructions. The absorbance (OD570) was read on an ELISA reader (Tecan, Austria). In all experiments, three replicate wells were used for each drug concentration. Each assay was carried out for at least three times.
In general terms: Tetrazolium assays rely on reduction of a dye to a coloured formazan, in cell work by metabolically active cells.

The subject of the next assay is MDA-MB-436. Kind of assay: MTT anti-proliferation assay. Conditions: Homo sapiens, MDA-MB-436, 24 h treatment. The protocol:
as §1, §2

The test system of a further assay is BT-474. The assay can be described thus: MTT anti-proliferation assay. Conditions: Homo sapiens, BT-474, 24 h treatment. The protocol:
as §1, §2

For another assay, the system named is SKBR-3. Kind of assay: MTT anti-proliferation assay. Conditions: Homo sapiens, SK-BR-3, 24 h treatment. The protocol:
as §1, §2

For the next assay, the system named is MDA-MB-231. The assay can be described thus: MTT anti-proliferation assay. Conditions: Homo sapiens, MDA-MB-231, 24 h treatment. The protocol:
as §1, §2

For another assay, the system named is MCF-7. The assay can be described thus: MTT anti-proliferation assay. As to conditions: Homo sapiens, MCF7, 24 h treatment. The protocol:
as §1, §2

Assay [1] concerns STAT3-TATA-Luc reporter in MDA-MB-231 cells. Kind of assay: STAT3 dual-luciferase reporter assay. Conditions: MDA-MB-231, 24 h treatment. The protocol:
Figure 3 MDA-MB-231 cells were transfected with STAT3-TATA-Luc reporter and Renilla luciferase reporter plasmids. After 24 h, cells were treated with indicated concentrations of PMM-172 or Stattic for 24 h and then luciferase intensity was measured. Results are fold change ± SD of three independent experiments, *P < 0.05, **P < 0.01.
Cells were seeded in 24 well plates and transiently transfected together with STAT3 reporter plasmid 4 × M67 pTATA TK-Luc (0.2 μg/per well, Addgene, USA) and Renilla luciferase control reporter plasmid pRL-CMV (0.1 μg/per well, promega, USA), using lipofectamine 2000 (Invitrogen, USA). Then the cells were incubated with complete medium for 24 h with PMM-172 or Stattic. Following the treatment, the cells were harvested in 100 μL of passive lysis buffer (Promega, USA) in each well. A 25 μL aliquot of cell lysate was subjected to a luciferase assay by using the dual-luciferase assay kit (Promega, USA). STAT3 luciferase activity was measured by EnVision Mutilabel Reader (Perkin Elmer, USA). Relative luciferase activity was calculated after the activity of STAT3-dependent firefly luciferase had been normalized to that of Renilla luciferase. All values are expressed as - fold induction relative to basal activity.
(In a reporter assay the amount or activity of a reporter protein is the signal.)

Each structure is given as a SMILES string.

As to `COc1cc(OC)cc(-c2nnc(SCC(=O)O[C@H](CC=C(C)C)C3=CC(=O)c4c(O)ccc(O)c4C3=O)o2)c1` [PMM-172, (R)-1-(5,8-dihydroxy-1,4-dioxo-1,4-dihydronaphthalen-2-yl)-4-methylpent-3-en-1-yl 2-((5-(3,5-dimethoxyphenyl)-1,3,4-oxadiazol-2-yl)thio)acetate], the IC50 (in general, the point on the concentration scale where inhibition reaches its midpoint) with MDA-MB-468 was 3.24 ± 0.27 µM; in the assay on MDA-MB-436 it was 3.07 ± 0.47 µM; with BT-474, 5.26 ± 0.66 µM; in the assay on SKBR-3, 3.14 ± 0.46 µM; in the assay with MDA-MB-231 it was 1.98 ± 0.49 µM; in the assay with MCF-7, 4.87 ± 0.55 µM. For the same compound, the STAT3 luciferase activity result in assay [1] was “decreased the STAT3 luciferase activity in a dose-dependent manner”.
